20 compounds from patent US20100240642A1, “1H-Indole-2-Carboxylic Acid Derivatives Useful As PPAR Modulators” (SMITHKLINE BEECHAM CORPORATION, priority 2006, published 2010) can be followed below.

The target in the test is T1, hPPARγ receptor (Homo sapiens, UniProt P37231).
T1 construct: expressed in transfected cells; host or cells: CV-1 (African Green Monkey kidney, ATCC CCL-70)
T1 sequence (P37231 172-475 isoform P37231-2): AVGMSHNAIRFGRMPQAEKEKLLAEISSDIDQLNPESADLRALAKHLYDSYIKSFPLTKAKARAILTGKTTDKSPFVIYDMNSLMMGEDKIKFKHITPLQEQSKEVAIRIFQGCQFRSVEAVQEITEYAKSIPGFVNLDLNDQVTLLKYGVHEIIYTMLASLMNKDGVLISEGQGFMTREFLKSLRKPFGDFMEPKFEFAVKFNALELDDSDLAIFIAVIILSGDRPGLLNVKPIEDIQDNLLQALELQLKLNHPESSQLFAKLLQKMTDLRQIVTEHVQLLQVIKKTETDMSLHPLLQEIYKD
Briefly: PPARγ Cell-based luciferase assay. As to conditions: CV-1 cells transfected with GAL4-hPPARγ LBD and UAStkLuc; at concentrations of 10^−6 M or less; read-out: agonism of the hPPARγ receptor (activation relative to full agonist rosiglitazone). The source says: Plasmids—PCR primers containing Kpnl and BamHI restriction sites were used to amplify PPARγ ligand binding domain (LBD) fragment (172-475) from a full-length human clone. The LBD fragment was ligated into the multiple cloning site of pFA-CMV (Stratagene). The resulting construct (pFA-CMV-GAL4-hPPARγLBD carried a fusion of the LBD with the yeast-derived GAL4 DNA-binding domain under the control of the CMV immediate early promoter. Reporter construct UAStkLuc carries a single 17 bp (CGGAGTACTGTCCTCCG) upstream activating sequence (UAS), the tk minimal promoter, and the firefly luciferase gene. The integrity of each construct was confirmed by diagnostic restriction digestion and by sequencing. Plasmid DNA was prepared using Qiagen Maxi-Prep kits.
PPARγ Cell-based luciferase assay—African Green Monkey kidney cell line CV-1 (ATCC CCL-70) was maintained in Dulbecco's Modified Eagle's Medium (D-MEM) containing 10% fetal bovine serum, 2 mM glutamine, and 1% penicillin/streptomycin (pen/strep). In preparation for luciferase assays, CV-1 cells were grown in charcoal-stripped cell medium containing D-MEM/F-12 medium supplemented with 5% or 3% dextran-treated/charcoal-stripped (CS) fetal bovine serum, 2 mM glutamine, with or without 1% pen/strep, as described below. CS fetal bovine serum was purchased from Hyclone; all other cell culture reagents were from Gibco.
The luciferase protocol is a multi-day procedure. On day 1, confluent cells in maintenance medium were subcultured 1:10 into T-175 cm^2 flasks containing 50 mL of 3% CS medium with pen/strep. These flasks were allowed to incubate at 5% CO2 and 37° C. for 72 hours.
Cells were harvested by trypsinization and then transfected using FuGENE (Roche) according to the manufacturer's specifications. Briefly, each transfection contained 0.55 μg pFA_CMV_GAL4_hPPARγ_LBD plasmid, 10.9 μg UAStkLUC, and 24 μg pBluescript (carrier DNA). Plasmid DNA was mixed with FuGENE in OptiMEM-1 medium and incubated for 30 min at room temperature. During this incubation, cells were harvested into 3% CS medium without pen-strep and dispensed at 14 million cells per T-175 cm^2 flask. Transfection mixes were added to the flasks and incubated overnight at 5% CO2 and 37° C.
Transfected cells were added to 384-well plates containing pharmacological agents. Rosiglitazone standard was reconstituted in DMSO at 1 mM. For 11-point dose-response experiments, the compounds were 3-fold serially diluted in DMSO and then stamped to 384-well assay plates (NUNC, catalog #164564) at 0.5 μL/well using a Beckman FX. DMSO and agonist control compound Rosiglitazone (1 mM) were each stamped at 0.5 μL/well to columns 23 and 24, respectively, of the 384-well plates. Transfected cells were harvested in 5% CS medium with pen/strep and dispensed at 10,000 cells/well (50 μL) onto the prepared 384-well compound plates using a Titertek Multidrop. Following overnight incubation at 5% CO2 and 37° C., Steady-Glo reagent (Promega) was added to the assay plates using a Multidrop. Plates were incubated for 10 min to ensure complete cell lysis and read in a ViewLux (PerkinElmer). […] Partial agonism is defined here as 20-80% activation (relative to full agonist rosiglitazone) at concentrations of 10^−6 M or less.

For the compound `CC(C)(C)c1ccc(-c2c(C(=O)O)n(Cc3cccc(-c4cccc(S(C)(=O)=O)c4)c3)c3ccccc23)cc1` [Example 25, 3-[4-(1,1-dimethylethyl)phenyl]-1-{[3′-(methylsulfonyl)-3-biphenylyl]methyl}-1H-indole-2-carboxylic acid], the Emax is 20 to 80%.
Take `Cc1ccc(-c2ccc(C(=O)N(C)C)cc2)cc1Cn1c(C(=O)O)c(-c2ccc(C(C)(C)C)cc2)c2ccccc21` [Example 28, 1-({4′-[(dimethylamino)carbonyl]-4-methyl-3-biphenylyl}methyl)-3-[4-(1,1-dimethylethyl)phenyl]-1H-indole-2-carboxylic acid]: the Emax lay in the range of 20 to 80%.
On to `CC(C)(C)c1ccc(-c2c(C(=O)O)n(Cc3cc(O)cc(-c4ccc(C(=O)O)cc4)c3)c3ccccc23)cc1` [Example 22, 1-[(4′-carboxy-5-hydroxy-3-biphenylyl)methyl]-3-[4-(1,1-dimethylethyl)phenyl]-1H-indole-2-carboxylic acid], for which the Emax fell in the range of 20 to 80%.
Consider `CC(C)(C)OC(=O)NS(=O)(=O)N1CCN(c2cccc(Cn3c(C(=O)O)c(-c4ccc(C(C)(C)C)cc4)c4ccccc43)c2)CC1` [Example 38, 1-[(3-{4-[({[(1,1-dimethylethyl)oxy]carbonyl}amino)sulfonyl]-1-piperazinyl}phenyl)methyl]-3-[4-(1,1-dimethylethyl)phenyl]-1H-indole-2-carboxylic acid], for which the Emax lay within 20 to 80%.
Under `Cc1ccc(-c2ccc(OC(C)(C)C(=O)O)cc2)cc1Cn1c(C(=O)O)c(-c2ccc(C(C)(C)C)cc2)c2ccccc21` [Example 12, 1-({4′-[(1-carboxy-1-methylethyl)oxy]-4-methyl-3-biphenylyl}methyl)-3-[4-(1,1-dimethylethyl)phenyl]-1H-indole-2-carboxylic acid] stands 20 to 80%; under `O=C(O)c1c(Cc2cccc(C(F)(F)F)c2)c2ccccc2n1Cc1cc(OCC2CC2)cc(OCC2CC2)c1` [Example 59, 1-({3,5-bis[(cyclopropylmethyl)oxy]phenyl}methyl)-3-{[3-(trifluoromethyl)phenyl]methyl}-1H-indole-2-carboxylic acid], 20 to 80%; under `CC(C)(C)c1ccc(-c2c(C(=O)O)n(Cc3cc(OCC4CC4)cc(-c4ccc(C(=O)O)cc4)c3)c3ccccc23)cc1` [Example 15, 1-({4′-carboxy-5-[(cyclopropylmethyl)oxy]-3-biphenylyl}methyl)-3-[4-(1,1-dimethylethyl)phenyl]-1H-indole-2-carboxylic acid], 20 to 80%.
Under `CSc1ccc(-c2cccc(Cn3c(C(=O)O)c(-c4ccc(C(C)(C)C)cc4)c4ccccc43)c2)cc1` [Example 23, 3-[4-(1,1-dimethylethyl)phenyl]-1-{[4′-(methylthio)-3-biphenylyl]methyl}-1H-indole-2-carboxylic acid] stands 20 to 80%; under `COCCOc1cc(Cn2c(C(=O)O)c(Cc3cccc(C(F)(F)F)c3)c3ccccc32)cc(OCC2CC2)c1` [Example 56, 1-[(3-[(cyclopropylmethyl)oxy]-5-{[2-(methyloxy)ethyl]oxy}phenyl)methyl]-3-{[3-(trifluoromethyl)phenyl]methyl}-1H-indole-2-carboxylic acid], 20 to 80%.
Under `CC(C)OC(=O)N1CCN(c2cccc(Cn3c(C(=O)O)c(-c4ccc(C(C)(C)C)cc4)c4ccccc43)c2)CC1` [Example 47, 3-[4-(1,1-dimethylethyl)phenyl]-1-{[3-(4-{[(1-methylethyl)oxy]carbonyl}-1-piperazinyl)phenyl]methyl}-1H-indole-2-carboxylic acid] stands 20 to 80%; under `CC(C)(C)c1ccc(-c2c(C(=O)O)n(Cc3cc(OCc4ccccc4)cc(OCC4CC4)c3)c3ccccc23)cc1` [Example 1, 1-({3-[(cyclopropylmethyl)oxy]-5-[(phenylmethyl)oxy]phenyl}methyl)-3-[4-(1,1-dimethylethyl)phenyl]-1H-indole-2-carboxylic acid], 20 to 80%; under `Cc1ccc(-c2ccc(C(=O)NCCc3cccs3)cc2)cc1Cn1c(C(=O)O)c(-c2ccc(C(C)(C)C)cc2)c2ccccc21` [Example 33, 3-[4-(1,1-dimethylethyl)phenyl]-1-{[4-methyl-4′-({[2-(2-thienyl)ethyl]amino}carbonyl)-3-biphenylyl]methyl}-1H-indole-2-carboxylic acid], 20 to 80%.
With `COc1ccc(-c2c(C(=O)O)n(Cc3cc(-c4ccc(C(=O)O)cc4)ccc3C)c3ccccc23)cn1` [Example 21, 1-[(4′-carboxy-4-methyl-3-biphenylyl)methyl]-3-[6-(methyloxy)-3-pyridinyl]-1H-indole-2-carboxylic acid], the Emax was 20 to 80%.
On to `Cc1ccc(-c2cccc(C(=O)NCc3cccs3)c2)cc1Cn1c(C(=O)O)c(-c2ccc(C(C)(C)C)cc2)c2ccccc21` [Example 30, 3-[4-(1,1-dimethylethyl)phenyl]-1-[(4-methyl-3′-{[(2-thienylmethyl)amino]carbonyl}-3-biphenylyl)methyl]-1H-indole-2-carboxylic acid], for which the Emax was in the range of 20 to 80%.
Under `CC(C)(C)c1ccc(-c2c(C(=O)O)n(Cc3cc(OCCN4CCCC4)cc(OCC4CC4)c3)c3ccccc23)cc1` [Example 41, 1-[(3-[(cyclopropylmethyl)oxy]-5-{[2-(1-pyrrolidinyl)ethyl]oxy}phenyl)methyl]-3-[4-(1,1-dimethylethyl)phenyl]-1H-indole-2-carboxylic acid] stands 20 to 80%; under `COCCOc1cc(Cn2c(C(=O)O)c(Oc3ccc(C(C)(C)C)cc3)c3ccccc32)cc(OCCOC)c1` [Example 61, 1-[(3,5-bis{[2-(methyloxy)ethyl]oxy}phenyl)methyl]-3-{[4-(1,1-dimethylethyl)phenyl]oxy}-1H-indole-2-carboxylic acid], 20 to 80%.
To `Cc1ccc(-c2cccc(C(=O)NCCc3cccs3)c2)cc1Cn1c(C(=O)O)c(-c2ccc(C(C)(C)C)cc2)c2ccccc21` [Example 31] belongs 20 to 80%.
Under `CC(C)(C)c1ccc(-c2c(C(=O)O)n(Cc3cccc(N4CCOCC4)c3)c3ccccc23)cc1` [Example 26, 3-[4-(1,1-dimethylethyl)phenyl]-1-{[3-(4-morpholinyl)phenyl]methyl}-1H-indole-2-carboxylic acid] stands 20 to 80%.
`COCCOc1cc(Cn2c(C(=O)O)c(Cc3cccc(C(F)(F)F)c3)c3ccccc32)cc(OCCOC)c1` [Example 58, 1-[(3,5-bis{[2-(methyloxy)ethyl]oxy}phenyl)methyl]-3-{[3-(trifluoromethyl)phenyl]methyl}-1H-indole-2-carboxylic acid]: the Emax was 20 to 80%.
As for `COCCOc1cc(Cn2c(C(=O)O)c(-c3ccc(C(C)(C)C)cc3)c3ccccc32)cc(OCc2ccccc2)c1` [Example 67, 3-[4-(1,1-dimethylethyl)phenyl]-1-({3-{[2-(methyloxy)ethyl]oxy}-5-[(phenylmethyl)oxy]phenyl}methyl)-1H-indole-2-carboxylic acid], the Emax was in the range of 20 to 80%.
